Key:
Test in all cases: relative viability (nuclei count vs DMSO), 5 days (fraction); higher = more cells survive
ChaGo-K-1 = tested on: ChaGo-K-1
Method in brief: (§1)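 A single step with final 0.05% Triton X-100, 1% formaldehyde and 1 ug/ml Hoechst fixed the cells and stained nuclei 5 days after treatment. Lung cancer cell lines in 1536-well plates had been treated by pin tool the day after seeding with one drug alone or a fixed anchor-drug dose plus five library-drug doses (not always all listed) in √10 steps, and nuclei were counted on 4× images. Relative viability is the ratio of nuclei in treated wells to nuclei in vehicle wells, taken as the median of duplicate plates.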

EMC-BAC-2 = tested on: EMC-BAC-2
Method in brief: as §1

EPLC-272H = tested on: EPLC-272H
Method in brief: as §1

H3255 = tested on: H3255
Method in brief: as §1

HCC-44 = tested on: HCC-44
Method in brief: as §1

HCC-827 = tested on: HCC-827
Method in brief: as §1

LCLC-103H = tested on: LCLC-103H
Method in brief: as §1

LCLC-97TM1 = tested on: LCLC-97TM1
Method in brief: as §1

NCI-H1355 = tested on: NCI-H1355
Method in brief: as §1

NCI-H1395 = tested on: NCI-H1395
Method in brief: as §1

NCI-H1651 = tested on: NCI-H1651
Method in brief: as §1

NCI-H1793 = tested on: NCI-H1793
Method in brief: as §1

NCI-H1944 = tested on: NCI-H1944
Method in brief: as §1

NCI-H2023 = tested on: NCI-H2023
Method in brief: as §1

NCI-H2085 = tested on: NCI-H2085
Method in brief: as §1

NCI-H2087 = tested on: NCI-H2087
Method in brief: as §1

NCI-H2405 = tested on: NCI-H2405
Method in brief: as §1

NCI-H322M = tested on: NCI-H322M
Method in brief: as §1

NCI-H520 = tested on: NCI-H520
Method in brief: as §1

NCI-H650 = tested on: NCI-H650
Method in brief: as §1

SK-MES-1 = tested on: SK-MES-1
Method in brief: as §1

UMC-11 = tested on: UMC-11
Method in brief: as §1

**Q.** Which results are given for `CC1(C)CCC(c2ccc(Cl)cc2)=C(CN2CCN(c3ccc(C(=O)NS(=O)(=O)c4ccc(N[C@H](CCN5CCOCC5)CSc5ccccc5)c(S(=O)(=O)C(F)(F)F)c4)cc3)CC2)C1` [Navitoclax] + CC(=O)c1c(C)c2cnc(Nc3ccc(N4CCNCC4)cn3)nc2n(C2CCCC2)c1=O [Palbociclib] (partner 0.5 µM)?
**A.** relative viability (ChaGo-K-1; first compound 0.005 µM): 0.971; relative viability (ChaGo-K-1; first compound 0.01581 µM): 0.926; relative viability (ChaGo-K-1; first compound 0.05 µM): 0.492; relative viability (ChaGo-K-1; first compound 0.1581 µM): 0.903; relative viability (ChaGo-K-1; first compound 0.5 µM): 0.954; relative viability (EMC-BAC-2; first compound 0.005 µM): 0.522; relative viability (EMC-BAC-2; first compound 0.01581 µM): 0.533; relative viability (EMC-BAC-2; first compound 0.05 µM): 0.532; relative viability (EMC-BAC-2; first compound 0.1581 µM): 0.5; relative viability (EMC-BAC-2; first compound 0.5 µM): 0.507; relative viability (EPLC-272H; first compound 0.005 µM): 0.325; relative viability (EPLC-272H; first compound 0.05 µM): 0.324; relative viability (EPLC-272H; first compound 0.1581 µM): 0.31; relative viability (EPLC-272H; first compound 0.5 µM): 0.297; relative viability (H3255; first compound 0.005 µM): 0.304; relative viability (H3255; first compound 0.01581 µM): 0.329; relative viability (H3255; first compound 0.05 µM): 0.3; relative viability (H3255; first compound 0.1581 µM): 0.312; relative viability (H3255; first compound 0.5 µM): 0.316; relative viability (HCC-44; first compound 0.005 µM): 0.968; relative viability (HCC-44; first compound 0.01581 µM): 0.919; relative viability (HCC-44; first compound 0.05 µM): 0.947; relative viability (HCC-44; first compound 0.1581 µM): 0.893; relative viability (HCC-44; first compound 0.5 µM): 0.956; relative viability (HCC-827; first compound 0.005 µM): 0.582; relative viability (HCC-827; first compound 0.01581 µM): 0.528; relative viability (HCC-827; first compound 0.05 µM): 0.374; relative viability (HCC-827; first compound 0.1581 µM): 0.477; relative viability (HCC-827; first compound 0.5 µM): 0.437; relative viability (LCLC-103H; first compound 0.005 µM): 0.453; relative viability (LCLC-103H; first compound 0.01581 µM): 0.487; relative viability (LCLC-103H; first compound 0.05 µM): 0.486; relative viability (LCLC-103H; first compound 0.1581 µM): 0.443; relative viability (LCLC-103H; first compound 0.5 µM): 0.418; relative viability (LCLC-97TM1; first compound 0.005 µM): 0.239; relative viability (LCLC-97TM1; first compound 0.01581 µM): 0.215; relative viability (LCLC-97TM1; first compound 0.05 µM): 0.166; relative viability (LCLC-97TM1; first compound 0.1581 µM): 0.203; relative viability (LCLC-97TM1; first compound 0.5 µM): 0.241; relative viability (NCI-H1355; first compound 0.005 µM): 0.381; relative viability (NCI-H1355; first compound 0.01581 µM): 0.438; relative viability (NCI-H1355; first compound 0.05 µM): 0.429; relative viability (NCI-H1355; first compound 0.1581 µM): 0.385; relative viability (NCI-H1355; first compound 0.5 µM): 0.409; relative viability (NCI-H1395; first compound 0.005 µM): 0.617; relative viability (NCI-H1395; first compound 0.01581 µM): 0.664; relative viability (NCI-H1395; first compound 0.05 µM): 0.674; relative viability (NCI-H1395; first compound 0.1581 µM): 0.653; relative viability (NCI-H1395; first compound 0.5 µM): 0.583; relative viability (NCI-H1651; first compound 0.005 µM): 0.513; relative viability (NCI-H1651; first compound 0.01581 µM): 0.552; relative viability (NCI-H1651; first compound 0.05 µM): 0.494; relative viability (NCI-H1651; first compound 0.1581 µM): 0.513; relative viability (NCI-H1651; first compound 0.5 µM): 0.54; relative viability (NCI-H1793; first compound 0.005 µM): 0.312; relative viability (NCI-H1793; first compound 0.01581 µM): 0.281; relative viability (NCI-H1793; first compound 0.1581 µM): 0.336; relative viability (NCI-H1793; first compound 0.5 µM): 0.295; relative viability (NCI-H1944; first compound 0.005 µM): 0.345; relative viability (NCI-H1944; first compound 0.01581 µM): 0.364; relative viability (NCI-H1944; first compound 0.1581 µM): 0.3; relative viability (NCI-H1944; first compound 0.5 µM): 0.341; relative viability (NCI-H2023; first compound 0.005 µM): 0.421; relative viability (NCI-H2023; first compound 0.01581 µM): 0.427; relative viability (NCI-H2023; first compound 0.05 µM): 0.384; relative viability (NCI-H2023; first compound 0.1581 µM): 0.401; relative viability (NCI-H2023; first compound 0.5 µM): 0.439; relative viability (NCI-H2085; first compound 0.005 µM): 0.45; relative viability (NCI-H2085; first compound 0.01581 µM): 0.456; relative viability (NCI-H2085; first compound 0.05 µM): 0.379; relative viability (NCI-H2085; first compound 0.1581 µM): 0.482; relative viability (NCI-H2085; first compound 0.5 µM): 0.502; relative viability (NCI-H2087; first compound 0.005 µM): 0.22; relative viability (NCI-H2087; first compound 0.01581 µM): 0.244; relative viability (NCI-H2087; first compound 0.1581 µM): 0.255; relative viability (NCI-H2087; first compound 0.5 µM): 0.257; relative viability (NCI-H2405; first compound 0.005 µM): 0.501; relative viability (NCI-H2405; first compound 0.01581 µM): 0.562; relative viability (NCI-H2405; first compound 0.05 µM): 0.562; relative viability (NCI-H2405; first compound 0.1581 µM): 0.511; relative viability (NCI-H2405; first compound 0.5 µM): 0.506; relative viability (NCI-H322M; first compound 0.005 µM): 0.522; relative viability (NCI-H322M; first compound 0.01581 µM): 0.534; relative viability (NCI-H322M; first compound 0.05 µM): 0.476; relative viability (NCI-H322M; first compound 0.1581 µM): 0.479; relative viability (NCI-H322M; first compound 0.5 µM): 0.499; relative viability (NCI-H520; first compound 0.005 µM): 0.273; relative viability (NCI-H520; first compound 0.01581 µM): 0.25; relative viability (NCI-H520; first compound 0.05 µM): 0.18; relative viability (NCI-H520; first compound 0.1581 µM): 0.182; relative viability (NCI-H520; first compound 0.5 µM): 0.217; relative viability (NCI-H650; first compound 0.005 µM): 0.326; relative viability (NCI-H650; first compound 0.01581 µM): 0.35; relative viability (NCI-H650; first compound 0.05 µM): 0.315; relative viability (NCI-H650; first compound 0.1581 µM): 0.304; relative viability (NCI-H650; first compound 0.5 µM): 0.336; relative viability (SK-MES-1; first compound 0.005 µM): 0.332; relative viability (SK-MES-1; first compound 0.01581 µM): 0.343; relative viability (SK-MES-1; first compound 0.05 µM): 0.336; relative viability (SK-MES-1; first compound 0.1581 µM): 0.303; relative viability (SK-MES-1; first compound 0.5 µM): 0.385; relative viability (UMC-11; first compound 0.005 µM): 0.388; relative viability (UMC-11; first compound 0.01581 µM): 0.305; relative viability (UMC-11; first compound 0.05 µM): 0.333; relative viability (UMC-11; first compound 0.1581 µM): 0.322; relative viability (UMC-11; first compound 0.5 µM): 0.319
